Reference: US20030060397A1, “Method of treating and preventing acute neural lesions with substances that modulate the expression or function of a protein involved in the cell cycle and pharmaceutical preparations containing such substances” (priority 2000, published 2003)

Tests used:
hippocampus cells = experiment: Kainate-dependent neuronal death in primary hippocampus cell cultures (propidium iodine); assay type: cell-based, Wistar rats; settings: kainate 20 μM
Description: Neuronal death was analyzed by phase contrast microscopy and the use of two death markers: propidium iodine and Hoechst dye (Bisbenzimide).
Counting was performed on hippocampus cultures exposed to 20 μM of kainate. At least two dishes per condition were evaluated.

cyclin D1 = experiment: Western blot of cyclin D1 expression after exposure to kainate, normalized by class III β-tubulin; assay type: cell-based, Wistar rats; settings: kainate 75 μM, 100% before kainate
Description: After exposure of the hippocampus cells to kainate, the cells were washed in PBS then lysed in a Laemli buffer. The samples were subjected to sonication and heated at 100° C. for 5 minutes. Electrophoresis with a 12% SDS-polyacrylamide gel was then performed. The proteins were then transferred onto a nitrocellulose membrane and incubated with an anti-cyclin D1 monoclonal antibody or with an anti-CDK5 polyclonal antibody (Santa Cruz, Calif., USA) or with a class III anti-β-tubulin monoclonal antibody (Sigma, St. Louis, USA), a specific neuronal marker. Labeling was performed using the anti-rabbit antibody or anti-mouse antibody coupled to horseradish peroxidase using the ECLTM kit (Amersham Corp., England). The control experiments were performed by omitting the first antibodies.

[1] = system: excitotoxic neuronal death induced by kainate; settings: inhibitors of caspases; cited from earlier work
[2] = 5 hours, in the absence of inhibitor

| Compound | augmentation of neuronal death in relation to the cultures without kainate (hippocampus cells; [2]) | neuronal death (hippocampus cells; [2]) | time of mortality peak (hippocampus cells; propidium iodine) | normalized level of expression of cyclin D1 (percentage of the control) (cyclin D1) | prevention of excitotoxic neuronal death induced by kainate [1] |
| --- | --- | --- | --- | --- | --- |
| C=C(C)[C@H]1CN[C@H](C(=O)O)[C@H]1CC(=O)O [kainate] | 150% | ~65% | 5 h | more than 150% |  |
| DEVD-CHO |  |  |  |  | can not be prevented |
| YVAD-CHO |  |  |  |  | can not be prevented |
